Experimental findings from ChEMBL document CHEMBL5442175, “EUbOPEN Chemogenomics Library - PDSP Secondary Binding” (2024) are described below.

Experiment [1] deals with Sodium-dependent dopamine transporter (Homo sapiens, UniProt Q01959). In words: PDSP Secondary Binding target: SLC6A3 - Compounds are tested at 10 uM concentration, plate are incubated at room temperature in the dark for 90 minutes. Reaction are stopped by vacuum filtration onto 0.3% polyethyleneimine soaked filter mats using Filtermate harvester. Scintillation cocktail is then melted onto microwave-dried filters on a hot plate and the radio activity is counted in Microbia counter.
Chain of Sodium-dependent dopamine transporter (Q01959 whole entry): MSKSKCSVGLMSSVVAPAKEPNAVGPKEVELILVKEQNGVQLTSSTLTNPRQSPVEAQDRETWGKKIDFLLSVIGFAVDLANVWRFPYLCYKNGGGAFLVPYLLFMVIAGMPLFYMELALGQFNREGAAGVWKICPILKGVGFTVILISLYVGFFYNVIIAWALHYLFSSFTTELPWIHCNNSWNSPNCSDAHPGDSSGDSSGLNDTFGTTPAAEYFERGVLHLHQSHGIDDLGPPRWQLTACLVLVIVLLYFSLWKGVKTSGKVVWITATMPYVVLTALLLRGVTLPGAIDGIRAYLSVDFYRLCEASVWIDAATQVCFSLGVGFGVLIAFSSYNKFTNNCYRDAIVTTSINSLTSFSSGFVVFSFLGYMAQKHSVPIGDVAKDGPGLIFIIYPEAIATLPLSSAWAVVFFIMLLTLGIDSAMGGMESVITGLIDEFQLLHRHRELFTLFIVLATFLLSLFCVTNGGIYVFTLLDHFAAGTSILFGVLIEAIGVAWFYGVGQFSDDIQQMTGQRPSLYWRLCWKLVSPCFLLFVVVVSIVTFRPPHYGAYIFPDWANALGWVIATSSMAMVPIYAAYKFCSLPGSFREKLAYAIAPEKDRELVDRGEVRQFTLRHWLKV

In experiment [2] the target is 5-hydroxytryptamine receptor 2A (Homo sapiens, UniProt P28223). In words: PDSP Secondary Binding target: HTR2A - Compounds are tested at 10 uM concentration, plate are incubated at room temperature in the dark for 90 minutes. Reaction are stopped by vacuum filtration onto 0.3% polyethyleneimine soaked filter mats using Filtermate harvester. Scintillation cocktail is then melted onto microwave-dried filters on a hot plate and the radio activity is counted in Microbia counter.
Chain of 5-hydroxytryptamine receptor 2A (P28223 whole entry): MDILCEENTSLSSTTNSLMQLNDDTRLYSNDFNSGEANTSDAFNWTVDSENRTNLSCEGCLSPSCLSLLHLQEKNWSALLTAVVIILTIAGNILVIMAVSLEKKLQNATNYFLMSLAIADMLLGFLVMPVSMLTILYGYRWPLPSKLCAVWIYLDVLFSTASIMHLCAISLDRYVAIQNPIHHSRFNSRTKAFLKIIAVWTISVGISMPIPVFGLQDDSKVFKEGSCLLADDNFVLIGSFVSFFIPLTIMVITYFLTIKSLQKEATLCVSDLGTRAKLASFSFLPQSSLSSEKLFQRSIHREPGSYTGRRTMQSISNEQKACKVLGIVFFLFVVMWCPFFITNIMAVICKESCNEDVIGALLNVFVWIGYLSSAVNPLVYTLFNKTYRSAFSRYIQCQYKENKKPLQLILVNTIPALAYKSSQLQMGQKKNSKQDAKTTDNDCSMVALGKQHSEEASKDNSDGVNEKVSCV

Another experiment addresses Translocator protein (Homo sapiens, UniProt P30536). In words: PDSP Secondary Binding target: TSPO - Compounds are tested at 10 uM concentration, plate are incubated at room temperature in the dark for 90 minutes. Reaction are stopped by vacuum filtration onto 0.3% polyethyleneimine soaked filter mats using Filtermate harvester. Scintillation cocktail is then melted onto microwave-dried filters on a hot plate and the radio activity is counted in Microbia counter.

The target in experiment [3] is Sigma non-opioid intracellular receptor 1 (Homo sapiens, UniProt Q99720). Nature of the experiment: PDSP Secondary Binding target: SIGMAR1 - Compounds are tested at 10 uM concentration, plate are incubated at room temperature in the dark for 90 minutes. Reaction are stopped by vacuum filtration onto 0.3% polyethyleneimine soaked filter mats using Filtermate harvester. Scintillation cocktail is then melted onto microwave-dried filters on a hot plate and the radio activity is counted in Microbia counter.
Chain of Sigma non-opioid intracellular receptor 1 (Q99720 whole entry): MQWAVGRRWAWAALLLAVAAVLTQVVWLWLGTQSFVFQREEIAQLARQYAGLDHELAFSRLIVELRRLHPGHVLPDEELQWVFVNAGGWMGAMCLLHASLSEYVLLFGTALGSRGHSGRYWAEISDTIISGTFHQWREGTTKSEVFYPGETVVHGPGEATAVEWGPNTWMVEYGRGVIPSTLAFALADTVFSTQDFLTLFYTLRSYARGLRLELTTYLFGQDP

Experiment [4] concerns the target Sigma intracellular receptor 2 (Homo sapiens, UniProt Q5BJF2). In words: PDSP Secondary Binding target: TMEM97 - Compounds are tested at 10 uM concentration, plate are incubated at room temperature in the dark for 90 minutes. Reaction are stopped by vacuum filtration onto 0.3% polyethyleneimine soaked filter mats using Filtermate harvester. Scintillation cocktail is then melted onto microwave-dried filters on a hot plate and the radio activity is counted in Microbia counter.

In experiment [5] the target is T1, Muscarinic acetylcholine receptor M5 (Homo sapiens, UniProt P08912).
T1 sequence (P08912 whole entry): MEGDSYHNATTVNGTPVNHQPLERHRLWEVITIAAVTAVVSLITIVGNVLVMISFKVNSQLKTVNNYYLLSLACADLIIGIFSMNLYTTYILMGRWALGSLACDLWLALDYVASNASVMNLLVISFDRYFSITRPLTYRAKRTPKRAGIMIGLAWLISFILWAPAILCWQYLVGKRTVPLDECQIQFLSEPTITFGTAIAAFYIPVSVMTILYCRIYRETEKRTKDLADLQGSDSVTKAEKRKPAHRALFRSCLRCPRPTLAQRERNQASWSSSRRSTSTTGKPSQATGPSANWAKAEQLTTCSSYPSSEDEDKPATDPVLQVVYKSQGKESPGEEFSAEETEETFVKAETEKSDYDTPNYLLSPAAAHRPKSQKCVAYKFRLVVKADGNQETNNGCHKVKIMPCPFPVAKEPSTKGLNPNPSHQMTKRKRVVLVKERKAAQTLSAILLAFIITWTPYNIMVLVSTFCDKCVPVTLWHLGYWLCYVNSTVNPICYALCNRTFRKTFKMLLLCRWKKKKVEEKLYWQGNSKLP
In words: PDSP Secondary Binding target: CHRM5 - Compounds are tested at 10 uM concentration, plate are incubated at room temperature in the dark for 90 minutes. Reaction are stopped by vacuum filtration onto 0.3% polyethyleneimine soaked filter mats using Filtermate harvester. Scintillation cocktail is then melted onto microwave-dried filters on a hot plate and the radio activity is counted in Microbia counter.

The next experiment addresses D(3) dopamine receptor (Homo sapiens, UniProt P35462). Nature of the experiment: PDSP Secondary Binding target: DRD3 - Compounds are tested at 10 uM concentration, plate are incubated at room temperature in the dark for 90 minutes. Reaction are stopped by vacuum filtration onto 0.3% polyethyleneimine soaked filter mats using Filtermate harvester. Scintillation cocktail is then melted onto microwave-dried filters on a hot plate and the radio activity is counted in Microbia counter.

The target of experiment [6] is T2, Alpha-1B adrenergic receptor (Homo sapiens, UniProt P35368).
T2 sequence (P35368 whole entry): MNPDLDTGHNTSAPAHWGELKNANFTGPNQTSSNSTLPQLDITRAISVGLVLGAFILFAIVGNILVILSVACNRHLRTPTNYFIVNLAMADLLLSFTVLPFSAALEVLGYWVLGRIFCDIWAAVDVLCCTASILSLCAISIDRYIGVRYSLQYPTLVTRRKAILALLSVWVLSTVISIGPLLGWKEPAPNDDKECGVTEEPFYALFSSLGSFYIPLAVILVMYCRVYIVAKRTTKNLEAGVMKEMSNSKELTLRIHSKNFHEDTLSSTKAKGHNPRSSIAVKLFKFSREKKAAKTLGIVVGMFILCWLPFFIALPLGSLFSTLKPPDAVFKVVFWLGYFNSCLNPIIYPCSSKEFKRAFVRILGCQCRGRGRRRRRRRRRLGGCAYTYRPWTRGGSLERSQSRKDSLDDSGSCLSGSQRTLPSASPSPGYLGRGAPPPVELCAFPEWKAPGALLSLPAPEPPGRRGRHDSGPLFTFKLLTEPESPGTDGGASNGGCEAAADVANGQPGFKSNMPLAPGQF
In words: PDSP Secondary Binding target: ADRA1B - Compounds are tested at 10 uM concentration, plate are incubated at room temperature in the dark for 90 minutes. Reaction are stopped by vacuum filtration onto 0.3% polyethyleneimine soaked filter mats using Filtermate harvester. Scintillation cocktail is then melted onto microwave-dried filters on a hot plate and the radio activity is counted in Microbia counter.

Experiment [7] deals with T3, Alpha-2A adrenergic receptor (Homo sapiens, UniProt P08913).
T3 sequence (P08913 whole entry): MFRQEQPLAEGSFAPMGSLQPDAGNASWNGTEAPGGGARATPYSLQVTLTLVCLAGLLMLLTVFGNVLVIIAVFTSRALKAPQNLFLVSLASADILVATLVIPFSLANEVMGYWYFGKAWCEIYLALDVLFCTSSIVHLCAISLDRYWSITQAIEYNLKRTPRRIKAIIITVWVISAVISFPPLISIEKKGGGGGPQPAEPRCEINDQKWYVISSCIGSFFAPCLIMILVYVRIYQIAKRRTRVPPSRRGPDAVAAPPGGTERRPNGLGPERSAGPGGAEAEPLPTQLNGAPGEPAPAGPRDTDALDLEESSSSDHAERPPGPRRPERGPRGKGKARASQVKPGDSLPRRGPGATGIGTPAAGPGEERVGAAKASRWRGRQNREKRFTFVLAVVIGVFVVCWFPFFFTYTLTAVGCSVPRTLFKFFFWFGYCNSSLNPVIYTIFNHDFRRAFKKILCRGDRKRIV
In words: PDSP Secondary Binding target: ADRA2A - Compounds are tested at 10 uM concentration, plate are incubated at room temperature in the dark for 90 minutes. Reaction are stopped by vacuum filtration onto 0.3% polyethyleneimine soaked filter mats using Filtermate harvester. Scintillation cocktail is then melted onto microwave-dried filters on a hot plate and the radio activity is counted in Microbia counter.

In experiment [8] the target is 5-hydroxytryptamine receptor 7 (Homo sapiens, UniProt P34969). In words: PDSP Secondary Binding target: HTR7 - Compounds are tested at 10 uM concentration, plate are incubated at room temperature in the dark for 90 minutes. Reaction are stopped by vacuum filtration onto 0.3% polyethyleneimine soaked filter mats using Filtermate harvester. Scintillation cocktail is then melted onto microwave-dried filters on a hot plate and the radio activity is counted in Microbia counter.
Chain of 5-hydroxytryptamine receptor 7 (P34969 whole entry): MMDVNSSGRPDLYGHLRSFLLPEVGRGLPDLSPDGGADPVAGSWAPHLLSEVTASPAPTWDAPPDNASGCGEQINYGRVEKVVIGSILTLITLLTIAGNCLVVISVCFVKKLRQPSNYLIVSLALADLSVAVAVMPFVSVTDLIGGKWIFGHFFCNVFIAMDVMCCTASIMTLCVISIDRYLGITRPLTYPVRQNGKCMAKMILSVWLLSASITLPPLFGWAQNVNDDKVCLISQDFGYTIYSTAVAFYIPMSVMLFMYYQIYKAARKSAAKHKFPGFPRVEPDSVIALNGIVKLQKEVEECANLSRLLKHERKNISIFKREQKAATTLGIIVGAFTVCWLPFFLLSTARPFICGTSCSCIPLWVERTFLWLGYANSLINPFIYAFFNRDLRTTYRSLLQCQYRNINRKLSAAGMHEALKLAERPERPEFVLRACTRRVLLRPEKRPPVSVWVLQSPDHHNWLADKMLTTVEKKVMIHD

The target in experiment [9] is Sodium-dependent noradrenaline transporter (Homo sapiens, UniProt P23975). In words: PDSP Secondary Binding target: SLC6A2 - Compounds are tested at 10 uM concentration, plate are incubated at room temperature in the dark for 90 minutes. Reaction are stopped by vacuum filtration onto 0.3% polyethyleneimine soaked filter mats using Filtermate harvester. Scintillation cocktail is then melted onto microwave-dried filters on a hot plate and the radio activity is counted in Microbia counter.
Chain of Sodium-dependent noradrenaline transporter (P23975 whole entry): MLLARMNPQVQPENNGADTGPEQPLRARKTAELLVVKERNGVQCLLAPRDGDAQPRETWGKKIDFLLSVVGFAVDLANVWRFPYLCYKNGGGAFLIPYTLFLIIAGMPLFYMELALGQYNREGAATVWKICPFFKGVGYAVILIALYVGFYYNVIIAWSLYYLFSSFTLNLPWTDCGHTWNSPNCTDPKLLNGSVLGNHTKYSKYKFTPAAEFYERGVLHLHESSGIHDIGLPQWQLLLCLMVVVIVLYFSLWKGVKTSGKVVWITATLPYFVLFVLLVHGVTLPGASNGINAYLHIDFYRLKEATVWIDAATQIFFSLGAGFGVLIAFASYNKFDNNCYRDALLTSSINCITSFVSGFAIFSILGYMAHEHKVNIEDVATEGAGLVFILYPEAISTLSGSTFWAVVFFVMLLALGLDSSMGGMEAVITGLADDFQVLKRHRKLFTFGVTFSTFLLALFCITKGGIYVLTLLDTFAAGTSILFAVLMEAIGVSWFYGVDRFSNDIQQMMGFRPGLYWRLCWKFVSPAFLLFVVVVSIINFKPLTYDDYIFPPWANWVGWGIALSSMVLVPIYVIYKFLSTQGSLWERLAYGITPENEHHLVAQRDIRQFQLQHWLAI

Experiment [10] deals with 5-hydroxytryptamine receptor 1D (Homo sapiens, UniProt P28221). In words: PDSP Secondary Binding target: HTR1D - Compounds are tested at 10 uM concentration, plate are incubated at room temperature in the dark for 90 minutes. Reaction are stopped by vacuum filtration onto 0.3% polyethyleneimine soaked filter mats using Filtermate harvester. Scintillation cocktail is then melted onto microwave-dried filters on a hot plate and the radio activity is counted in Microbia counter.
Chain of 5-hydroxytryptamine receptor 1D (P28221 whole entry): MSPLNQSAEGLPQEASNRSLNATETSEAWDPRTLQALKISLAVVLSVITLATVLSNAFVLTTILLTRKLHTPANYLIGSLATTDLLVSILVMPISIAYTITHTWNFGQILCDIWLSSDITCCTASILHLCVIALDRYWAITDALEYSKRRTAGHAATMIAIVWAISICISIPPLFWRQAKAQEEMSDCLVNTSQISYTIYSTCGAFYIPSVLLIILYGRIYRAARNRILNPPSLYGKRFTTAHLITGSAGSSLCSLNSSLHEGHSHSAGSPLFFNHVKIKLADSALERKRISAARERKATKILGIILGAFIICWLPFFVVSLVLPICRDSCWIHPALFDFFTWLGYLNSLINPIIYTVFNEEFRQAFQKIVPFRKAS

Structures can show the parent of a compound that is named as a salt.

Chain of Translocator protein (P30536 whole entry): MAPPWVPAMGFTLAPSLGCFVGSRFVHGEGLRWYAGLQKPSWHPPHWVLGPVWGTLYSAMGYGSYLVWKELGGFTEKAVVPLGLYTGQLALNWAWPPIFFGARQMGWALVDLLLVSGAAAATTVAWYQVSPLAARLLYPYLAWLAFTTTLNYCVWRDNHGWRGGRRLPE
Chain of Sigma intracellular receptor 2 (Q5BJF2 whole entry): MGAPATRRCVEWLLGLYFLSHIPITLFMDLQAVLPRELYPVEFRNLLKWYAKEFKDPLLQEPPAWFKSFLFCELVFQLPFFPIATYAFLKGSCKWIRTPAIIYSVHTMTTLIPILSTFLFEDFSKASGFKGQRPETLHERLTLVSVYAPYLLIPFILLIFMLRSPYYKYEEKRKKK
Chain of D(3) dopamine receptor (P35462 whole entry): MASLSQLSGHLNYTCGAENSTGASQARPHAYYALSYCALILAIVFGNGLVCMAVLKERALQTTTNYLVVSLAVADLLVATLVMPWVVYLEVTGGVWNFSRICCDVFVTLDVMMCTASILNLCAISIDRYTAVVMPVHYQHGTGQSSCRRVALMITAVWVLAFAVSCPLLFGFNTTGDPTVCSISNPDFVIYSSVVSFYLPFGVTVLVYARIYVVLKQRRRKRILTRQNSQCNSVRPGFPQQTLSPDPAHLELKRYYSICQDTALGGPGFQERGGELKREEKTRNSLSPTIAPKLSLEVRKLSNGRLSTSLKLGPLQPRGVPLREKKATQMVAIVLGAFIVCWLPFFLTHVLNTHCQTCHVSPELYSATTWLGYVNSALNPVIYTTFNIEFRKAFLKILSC

What is called Ki is the equilibrium dissociation constant of an inhibitor or competing ligand from its target. Consider `CCCCC#Cc1nc(NC)c2ncn([C@@H]3O[C@H](CO)[C@@H](O)[C@H]3O)c2n1`, for which the values for the Ki in experiment [1] and in experiment [2] were greater than 10000 nM and 7870 nM, respectively. The compound `CC1(C)SSC(C)(C)[C@@H](NC(=O)[C@@H](N)Cc2ccc(O)cc2)C(=O)NCC(=O)N[C@@H](Cc2ccccc2)C(=O)N[C@H]1C(=O)O` had a Ki on Translocator protein of 1630 nM. `CO[C@@H]1COCC[C@@H]1N[C@@H]1CC[C@@](C(=O)N2CCc3ncc(C(F)(F)F)cc3C2)(C(C)C)C1` [MK-0812]: the values for the Ki in [3] and in experiment [4] were 830 nM and 1870 nM, respectively.

With `N#Cc1c(O)nc(SCc2cccc(F)c2F)nc1C1CC1`, affinity in experiment [5] was put at a Ki of 6560 nM. Consider `CCCCN(CC)c1nc(C)nc2c1c(C)cn2-c1c(C)cc(C)cc1C`, for which the Ki on Translocator protein amounted to 1880 nM; in experiment [4], 2120 nM.

For `COc1ccc(Br)cc1S(=O)(=O)NC(=O)/C=C/c1ccccc1Cc1ccc2ccccc2c1`, the Ki on D(3) dopamine receptor came to 582 nM. As for `CCCSc1nc(N[C@@H]2C[C@H]2c2ccc(F)c(F)c2)c2nnn([C@@H]3C[C@H](OCCO)[C@@H](O)[C@H]3O)c2n1` [TICAGRELOR], the figures for the Ki in experiment [1] and in [4] were 519 nM and 1300 nM, respectively. With `Cc1nc(-c2ccc(C(F)(F)F)cc2)sc1COc1ccc([C@H](CC(=O)O)c2ccon2)cc1`, the Ki in [5] is 6850 nM; in [6], greater than 10000 nM; in experiment [1] it was 4490 nM.

`Cc1c(F)cccc1NC(=O)Nc1ccc(Cl)c(S(=O)(=O)[C@H]2CCCNC2)c1O` [DANIRIXIN] gave an inhibition constant Ki in [7] greater than 10000 nM.

In experiment [2], `COc1ccc(CNC(=O)c2cc(-c3cncc(Cl)c3)cnc2-c2ccccn2)nc1OC` [MK-1064] gave a Ki of 4590 nM. The compound `CNC[C@H](O)c1cccc(O)c1` [PHENYLEPHRINE] came in with a Ki in experiment [8] of 1110 nM. Consider `FC(F)(F)c1c(N2CCC(c3ccccc3)CC2)ccn2c(CC3CC3)nnc12`, for which the Ki in experiment [1] came to 4310 nM; in experiment [3], 983 nM. As for `CC(C)Oc1ccccc1C(=O)Nc1ccccc1C(=O)Nc1cccc(S(=O)(=O)C(F)(F)F)c1`, the Ki at Translocator protein was determined as 111 nM; in experiment [2], 983 nM. `Nc1nc(NCCc2ccc(O)cc2)nc2nc(-c3ccco3)nn12` [ZM-241385] yielded a Ki in experiment [4] of 1070 nM. For `Cc1cc(C)c(N)c(C#Cc2cccc(F)c2)n1` [RASEGLURANT], the Ki in experiment [9] was found to be 345 nM.

On D(3) dopamine receptor, `COc1ccc(/C=C/CCCCOc2ccc(C(=O)c3cccc(C(=O)O)c3)cc2CCC(=O)O)cc1` returned a Ki of 1960 nM. `O=C(Cc1ccccc1)Nc1nc2ccc(Cl)cc2c2nc(-c3ccco3)nn12` showed an inhibitory constant (Ki) in experiment [10] greater than 10000 nM. As to `CCCCCCCCCCCCC/C=C/[C@@H](O)[C@@H](N)COP(=O)(O)O`, the inhibition constant (Ki) at Translocator protein was found to be 3120 nM; in [3] it was 5980 nM; in [4] it was 672 nM.

`CC(C)NCC(O)COc1ccc(CCOCC2CC2)cc1` (configuration not stated) [BETAXOLOL HYDROCHLORIDE]: the Ki in [3] was 248 nM; in experiment [4] it was 1650 nM. With `Cc1csc(NC(=O)c2cc(F)cc(Oc3cncnc3)c2)n1`, the values for the Ki (in experiment [5]; on D(3) dopamine receptor; in experiment [1]) were greater than 10000 nM, 2140 nM and 2990 nM, respectively. Regarding `CCC(=O)NCC[C@@H]1CCc2ccc3c(c21)CCO3` [RAMELTEON], the Ki in [3] is 8850 nM. As to `COc1ccccc1CN[C@H]1C2CCN(CC2)[C@H]1C(c1ccccc1)c1ccccc1` [CP-96345], the inhibition constant Ki in experiment [5] was determined as 4940 nM; in [4], 906 nM. Regarding `O=C(O)CC1CCC2(CC1)CCN(c1cc(OC(F)(F)F)ccc1Cl)CC2`, affinity at D(3) dopamine receptor was put at a Ki of 591 nM. Take `COC(=O)[C@H]1[C@H]2C[C@H]3c4[nH]c5ccccc5c4CCN3C[C@H]2CC[C@@H]1O` [RAUWOLSCINE HYDROCHLORIDE]: the Ki in experiment [8] was 333 nM; in experiment [3] it was 2780 nM. The compound `CCCn1c(=O)c2[nH]c(C34CC5CC(CC3C5)C4)nc2n(CCC)c1=O` [ROLOFYLLINE] registered a Ki in experiment [1] of 3360 nM. As for `CC1=C2C[C@H]3[C@@H](CC=C4C[C@@H](O)CC[C@@]43C)[C@@H]2CC[C@]12O[C@@H]1C[C@H](C)CN[C@H]1[C@H]2C` [CYCLOPAMINE], the Ki was determined as 3420 nM in [1] and 599 nM in [4]. Regarding `NC(=O)[C@@H]1CCCN1C(=O)[C@H](Cc1cnc[nH]1)NC(=O)[C@@H]1CCC(=O)N1` [PROTIRELIN], the Ki on Translocator protein is greater than 10000 nM. With `COC1CCN(c2cccc(-c3cc(NC(C)=O)nc(-n4nc(C)cc4C)n3)n2)CC1`, the results for the Ki (on Translocator protein; in experiment [3]) were 969 nM and 474 nM, respectively. Turning to `O=C1O[C@]2(CC[C@H](C(=O)Nc3ccn(-c4ccccc4F)n3)CC2)c2cnccc21` [MK-0557], the Ki at D(3) dopamine receptor came out at 3570 nM. For `CN1C(=O)[C@@H](NC(=O)c2cc3ccccc3[nH]2)N=C(c2ccccc2)c2ccccc21` [DEVAZEPIDE], the inhibition constant (Ki) on Translocator protein came out at 3330 nM.
